Experimental data taken from patent publication US6486326B2, “iso-CBI and iso-CI analogs of CC-1065 duocarmycins” (The Scripps Research Institute, priority 1997, dated 2002).
Several values for one entry are separate records, joined by “and”; a condition that tells them apart may be missing. Equal entries are not always repeated.

Key:
w836 DNA (146 bp) = assay: DNA alkylation selectivity and efficiency, thermally-induced strand cleavage of w836 DNA; format: biochemical
Experimental: FIG. 6 illustsrates thermally-induced strand cleavage of w836 DNA (146 bp, nucleotide nos. 5189-91): DNA-agent incubation for 24 h ((−)-iso-CBI-TMI) at 25° C., removal of unbound agent and 30 min of thermolysis (100° C.), followed by denaturing 8% PAGE and autoradiography; lane 1, control DNA; lanes 2-5, Sanger G, C, A, and T sequencing reactions; lanes 6-8 (−)-iso-CBI-TMI ([…] to 1×10^−5 M); lanes 9-10, (+)-duocarmycin SA (1×10^−5 to 1×10^−6 M); lanes 11-12, (+)-iso-CBI-TMI (1×10^−2 and 1×10^−3).
DNA Alkylation Selectivity and Efficiency: The DNA alkylation properties of the agents were examined within w794 and w836 duplex DNA for which comparative results are available for related agents. (Boger, D. L., et al., J. Am. Chem. Soc. 1994, 116, 11335; Boger, D. L., et al., J. Am. Chem. Soc. 1994, 116, 6461; and Boger, D. L., et al., J. Am. Chem. Soc. 1995, 117, 11647) The alkylation site identification and the assessment of the relative selectivity among the available sites were obtained by thermally-induced strand cleavage of the singly 5′ end-labeled duplex DNA after exposure to the agents. […]

calf thymus DNA = assay: Calf thymus DNA alkylation, quantitation of adenine N3 adduct; format: biochemical; conditions: for conversion to thermally released adenine adduct 66: 4° C., 72 h, ca. 150 bp, then 100° C., 30 min, pH 7.0, four runs
Experimental: This was addressed through a study of the alkylation of calf thymus DNA. Optimized conditions for the alkylation were established for (−)-44 on an analytical scale (100 μg of agent). For this purpose, the long-wavelength UV absorption of the agent and the adduct provided a useful quantitative measure of the adenine adduct, unreacted starting material and any side products (solvolysis or rearrangement), Table 3. Analytical HPLC analysis was used to confirm the identity of the products through correlation of retention times and UV spectral data with authentic materials. The preparative DNA alkylation reaction and subsequent isolation of (+)-66 was carried out under conditions determined to provide complete consumption of the agent in the presence of a large excess of DNA Thus, extraction (EtOAc) of the aqueous buffer solution containing calf thymus DNA following alkylation (4° C., 72 h, 150 bp) afforded no recovered (−)-44, and only a small amount (<5%) of the rearranged product 65. Conducting the reaction at 4° C. in the presence of a large excess of DNA precluded competitive solvolysis. Thermal treatment of the alkylated DNA in aqueous 10 mM sodium phosphate buffer (100° C., 30 min, pH 7.0) followed by EtOAc extraction provided 66 in 90-95% conversion, ≧95% purity (by HPLC). Repeating this thermal treatment provided little or no additional adduct. No trace of a competing guanine adduct could be detected. This high conversion to a single adduct established that 44 participates exclusively in the adenine N3 alkylation reaction under the conditions examined.

COc1cc2cc(C(=O)N3CC4CC45C(=O)c4ccccc4C=C35)[nH]c2c(OC)c1OC (single isomer, unassigned; (-)) [(−)-iso-CBI-TMI, 2-[(5,6,7-Trimethoxyindol-2-yl)carbonyl]-1,2,9,9a-tetrahydrocyclopropa[c]benzo[f]indol-8-one]
DNA alkylation sites / selectivity (w836 DNA (146 bp)): same sites as (+)-duocarmycin SA
conversion to thermally released adenine adduct 66 (calf thymus DNA): 95% and 90-95%
conversion to thermally released adenine adduct 66 (calf thymus DNA; listed as (−)-44): 90-95%
consumption of the agent accounted for by adenine N3 addition (calf thymus DNA; in the presence of duplex DNA): 90-100%
